Laboratory results taken from ChEMBL document CHEMBL5131471, “Design, synthesis and mechanism studies of novel dual PARP1/BRD4 inhibitors against pancreatic cancer” (Eur J Med Chem, 2022).
Active and inactive are the calls of the source. The rule behind the calls is not given here.

What was measured:
SW1990 [1] = experiment: Effect on E2F2 gene expression in human SW1990 cells at 4 uM by Q-PCR analysis; format: functional, cell-based
SW1990 [2] = experiment: Effect on CDK1 to 2 gene expression in human SW1990 cells at 1 uM in presence of Olaparib by Q-PCR analysis; format: functional, cell-based
Mus musculus [3] = species on record: Mus musculus; settings: dose 15.0 mg/kg, route ip, time 28.0 day
SW1990 [4] = experiment: Effect on HEXIM1 gene expression in human SW1990 cells at 4 uM by Q-PCR analysis; format: functional, cell-based
SW1990 [5] = experiment: Induction of DNA damage in human SW1990 cells assessed as increase in gammaH2AX expression at 4 uM incubated for 4 days by DAPI staining based laser confocal microscopic analysis; format: functional, cell-based; settings: time 4.0 day
SW1990 [6] = experiment: Effect on MDC1 gene expression in human SW1990 cells at 4 uM by Q-PCR analysis; format: functional, cell-based
SW1990 [7] = experiment: Induction of DNA damage in human SW1990 cells assessed as increase in gammaH2AX expression at 1 uM incubated for 4 days in presence of Olaparib by DAPI staining based laser confocal microscopic analysis; format: functional, cell-based; settings: time 4.0 day
[8] = Toxicity in nude mouse xenografted with human SW1990 cells assessed as kidney damage at 15 mg/kg, ip administered for 28 days by H and E staining based fluorescence microscopic analysis; format: organism-based; settings: in vivo, 672 h, time 28 day
SW1990 [9] = experiment: Effect on CDC25B gene expression in human SW1990 cells at 4 uM by Q-PCR analysis; format: functional, cell-based
SW1990 [10] = experiment: Effect on Rad51 gene expression in human SW1990 cells at 4 uM by Q-PCR analysis; format: functional, cell-based
[11] = Toxicity in nude mouse xenografted with human SW1990 cells assessed as heart damage at 15 mg/kg, ip administered for 28 days in presence of 45 mg/kg Olaparib by H and E staining based fluorescence microscopic analysis; format: organism-based; settings: in vivo, 672 h, time 28 day
SW1990 [12] = experiment: Effect on E2F2 gene expression in human SW1990 cells at 1 uM in presence of Olaparib by Q-PCR analysis; format: functional, cell-based
SW1990 [13] = experiment: Induction of cell cycle arrest in human SW1990 cells assessed as accumulation of cells at G0/G1 phase at 1 uM incubated for 4 days in presence of 3 uM Olaparib by propidium iodide staining based flow cytometry (reference value: 64.79%); format: functional; settings: time 4 day
Mus musculus [14] = experiment: Upregulation of […] expression in nude mouse xenografted with human SW1990 cells at 45 mg/kg, ip measured after 28 days by DAPI staining based laser confocal microscopic analysis; format: functional, organism-based; settings: time 28.0 day
SW1990 [15] = experiment: Effect on HEXIM1 gene expression in human SW1990 cells at 6 uM by Q-PCR analysis; format: functional, cell-based
Mus musculus [16] = experiment: Upregulation of CDC25B expression in nude mouse xenografted with human SW1990 cells at 45 mg/kg, ip measured after 4 days by Western blot analysis; format: functional, organism-based; settings: time 4.0 day
Mus musculus [17] = experiment: Upregulation of CDK1 expression in nude mouse xenografted with human SW1990 cells at 45 mg/kg, ip measured after 4 days by Q-PCR analysis; format: functional, organism-based; settings: time 4.0 day
[18] = Toxicity in nude mouse xenografted with human SW1990 cells assessed as lung damage at 45 mg/kg, ip administered for 28 days by H and E staining based fluorescence microscopic analysis; format: organism-based; settings: in vivo, 672 h, time 28 day
Mus musculus [19] = experiment: Upregulation of E2F2 expression in nude mouse xenografted with human SW1990 cells at 45 mg/kg, ip measured after 4 days by Western blot analysis; format: functional, organism-based; settings: time 4.0 day
Mus musculus [20] = experiment: Upregulation of E2F2 expression in nude mouse xenografted with human SW1990 cells at 45 mg/kg, ip measured after 4 days by Q-PCR analysis; format: functional, organism-based; settings: time 4.0 day
SW1990 [21] = experiment: Upregulation of FOXM1 expression in human SW1990 cells at 6 uM measured after 4 days by Western blot analysis; format: functional, cell-based; settings: time 4.0 day
SW1990 [22] = experiment: Effect on FOXO1 gene expression in human SW1990 cells at 6 uM by Q-PCR analysis; format: functional, cell-based
SW1990 [23] = experiment: Upregulation of BRCA2 expression in human SW1990 cells at 6 uM measured after 4 days by Western blot analysis; format: functional, cell-based; settings: time 4.0 day
SW1990 [24] = experiment: Upregulation of CCND1 expression in human SW1990 cells at 6 uM measured after 4 days by Western blot analysis; format: functional, cell-based; settings: time 4.0 day
Mus musculus [25] = experiment: Inhibition of BRD4 expression in nude mouse xenografted with human SW1900 cells at 30 mg/kg, ip administered for 28 days by DAPI staining based laser confocal microscopic analysis; format: functional, organism-based; settings: time 28.0 day
SW1990 [26] = experiment: Induction of apoptosis in human SW1990 cells assessed as early apoptotic cells at 1 uM measured after 4 days by Annexin V-FITC and propidium iodide staining based flow cytometry (reference value: 1.62%); format: functional; settings: time 4 day
Mus musculus [27] = experiment: Inhibition of homologous recombinant repair in nude mouse xenografted with human SW1990 cells assessed as reversal of olaparib-induced FOXO1 expression at 30 mg/kg, ip measured after 4 days by Western blot analysis; format: functional, organism-based; settings: time 4.0 day
SW1990 [28] = experiment: Inhibition of homologous recombinant repair in human SW1990 cells assessed as reversal of Olaparib-induced FOXM1 expression at 1 to 2 uM after 4 days by Western blot analysis; format: functional, cell-based; settings: dose 1-2 µM, time 4.0 day
SW1990 [29] = experiment: Inhibition of homologous recombinant repair in human SW1990 cells assessed as reversal of Olaparib-induced MDC1 expression at 1 to 2 uM after 4 days by Western blot analysis; format: functional, cell-based; settings: dose 1-2 µM, time 4.0 day
SW1990 [30] = experiment: Effect on CDC25B gene expression in human SW1990 cells at 1 to 2 uM by Q-PCR analysis; format: functional, cell-based; settings: dose 1-2 µM
SW1990 [31] = experiment: Effect on CDC25A gene expression in human SW1990 cells at 1 to 2 uM by Q-PCR analysis; format: functional, cell-based; settings: dose 1-2 µM
SW1990 [32] = experiment: Inhibition of CCND1 protein expression in human SW1990 cells at 1 to 2 uM measured after 4 days by Western blot analysis; format: functional, cell-based; settings: dose 1-2 µM, time 4.0 day
Mus musculus [33] = experiment: Inhibition of homologous recombinant repair in nude mouse xenografted with human SW1990 cells assessed as reversal of olaparib-induced BRCA2 expression at 30 mg/kg, ip after 4 days by Western blot analysis; format: functional, organism-based; settings: time 4.0 day
SW1990 [34] = experiment: Downregulation of PARP1 expression in human SW1990 cells at 2 uM measured after 4 days by Western blot analysis; format: functional, cell-based; settings: time 4.0 day
Mus musculus [35] = experiment: Inhibition of CCNB1 expression in nude mouse xenografted with human SW1990 cells at 30 mg/kg, ip measured after 4 days by Q-PCR analysis; format: functional, organism-based; settings: time 4.0 day
SW1990 [36] = experiment: Effect on Rad51 gene expression in human SW1990 cells at 1 to 2 uM by Q-PCR analysis; format: functional, cell-based; settings: dose 1-2 µM
SW1990 [37] = experiment: Effect on c-Myc gene expression in human SW1990 cells at 1 to 2 uM by Q-PCR analysis; format: functional, cell-based; settings: dose 1-2 µM
SW1990 [38] = experiment: Inhibition of homologous recombinant repair in human SW1990 cells assessed as reversal of Olaparib-induced c-Myc expression at 1 to 2 uM after 4 days by Western blot analysis; format: functional, cell-based; settings: dose 1-2 µM, time 4.0 day
Mus musculus [39] = experiment: Inhibition of homologous recombinant repair in nude mouse xenografted with human SW1990 cells assessed as reversal of olaparib-induced BRCA1 expression at 30 mg/kg, ip measured after 4 days by Western blot analysis; format: functional, organism-based; settings: time 4.0 day

## Cc1sc2c(c1C)C(c1ccc(Cl)cc1)=N[C@@H](CC(=O)OC(C)(C)C)c1nnc(C)n1-2
SW1990 [1]
  Activity: Active
SW1990 [2]
  Activity: Active
Mus musculus [3]
  inhibition: Active
SW1990 [4]
  Activity: Active
SW1990 [5]
  Activity: Active
SW1990 [6]
  Activity: Active
SW1990 [7]
  Activity: Active
[8]
  Activity: Non-Toxic
SW1990 [9]
  Activity: Active
SW1990 [10]
  Activity: Active
[11]
  Activity: Non-Toxic
SW1990 [12]
  Activity: Active
SW1990 [13]
  Activity: 71.53%

## O=C(c1cc(Cc2n[nH]c(=O)c3ccccc23)ccc1F)N1CCN(C(=O)C2CC2)CC1 [OLAPARIB]
Mus musculus [14]
  Activity: Active
SW1990 [15]
  Activity: Active
Mus musculus [16]
  Activity: Active
Mus musculus [17]
  Activity: Active
[18]
  Activity: Non-Toxic
Mus musculus [19]
  Activity: Active
Mus musculus [20]
  Activity: Active
SW1990 [21]
  Activity: Active
SW1990 [22]
  Activity: Active
SW1990 [23]
  Activity: Active
SW1990 [24]
  Activity: Active

## Cc1noc(C)c1-c1ccc2c(c1)C(c1ccccc1)N(Cc1nc3c(C(N)=O)cccc3[nH]1)C(=O)N2C (centres undefined)
Mus musculus [25]
  inhibition: Active
SW1990 [26]
  Activity: 3.02%
Mus musculus [27]
  inhibition: Active
SW1990 [28]
  inhibition: Active
SW1990 [29]
  inhibition: Active
SW1990 [30]
  Activity: Active
SW1990 [31]
  Activity: Active
SW1990 [32]
  inhibition: Active
Mus musculus [33]
  inhibition: Active
SW1990 [34]
  Activity: Active
Mus musculus [35]
  inhibition: Active
SW1990 [36]
  Activity: Active
SW1990 [37]
  Activity: Active
SW1990 [38]
  inhibition: Active
Mus musculus [39]
  inhibition: Active
